Measured values taken from patent US10722593B2, “Anti-cancer compounds and conjugates thereof” (SIRENAS LLC, priority 2015, dated 2020).
pIC50: −log10 of the molar value. Square brackets hold non-standard residues; d marks the D form. Peptide text beside a SMILES is read from it. * marks the point of attachment. Dolaproine = CO[C@@H]([C@@H]1CCCN1)[C@@H](C)C(=O)O; Dil = CC[C@H](C)[C@H](NC)[C@@H](CC(=O)O)OC; dVal(3-OH) = CC(C)(O)[C@@H](N)C(=O)O; Val(3-OH) = CC(C)(O)[C@H](N)C(=O)O; Doe = c1ccc(C[C@H](N*)c2nccs2)cc1; X1 = C[C@@H](N*)[C@@H](O)c1ccccc1; NMeV = CN[C@H](C(=O)O)C(C)C; NMeAib = CNC(C)(C)C(=O)O; Aib = CC(C)(N)C(=O)O

Legend:
Type in all cases: cell-based
[1] = system: MES-SA (human uterine sarcoma) cells; assay: Inhibitory response against MES-SA cells (Cell Titer-Glo); conditions: 72 hours of culture, inhibition of cell growth
Procedure: (§1) MES-SA (human uterine sarcoma) cells were seeded in a clear polystyrene 96-well microculture plate (Corning® Costar® 96-well flat bottom plate, Cat. #3997) in a total volume of 90 μL/well. After 24 hours of incubation in a humidified incubator at 37° C. with 5% CO2 and 95% air, 10 μL of 10×, serially diluted test agents in growth medium were added to each well (10 pt dose response curve, highest concentration 10 μM of test agent). After 72 hours of culture in a humidified incubator at 37° C., in an atmosphere of 5% CO2 and 95% air, the plated cells and Cell Titer-Glo® (Promega G7571) reagents were brought to room temperature to equilibrate for 30 minutes. 100 μL of Cell Titer-Glo® reagent was added to each well. The plate was shaken for two minutes and then left to equilibrate for ten minutes. The media/Cell Titer-Glo® reagent was transferred to a white polystyrene 96-well microculture plate (Corning® Costar® 96-well flat bottom plate, Cat. #3917) before reading luminescence on a Tecan GENios microplate reader.
Percent inhibition of cell growth is calculated relative to untreated control wells. The IC50 value for the test agents is determined using Prism 6.05 by curve-fitting of the data using the following four parameter-logistic equation:
(§2) [formula] where Top is the maximal % of control absorbance, Bottom is the minimal % of control absorbance at the highest agent concentration, Y is the % of control absorbance, X is the agent concentration, IC50 is the concentration of agent that inhibits cell growth by 50% compared to the control cells, and n is the slope of the curve.

[2] = system: MES-SA/Dx (multidrug-resistant human uterine sarcoma) cells; assay: Inhibitory response against MES-SA/Dx cells (Cell Titer-Glo); conditions: 72 hours of culture, inhibition of cell growth
Procedure: MES-SA/Dx (multidrug-resistant human uterine sarcoma) cells are seeded in a clear polystyrene 96-well microculture plate in a total volume of 90 μL/well. After 24 hours of incubation in a humidified incubator at 37° C. with 5% CO2 and 95% air, 10 μL of 10×, serially diluted test agents in growth medium are added to each well. After 72 hours of culture in a humidified incubator at 37° C., in an atmosphere of 5% CO2 and 95% air, the plated cells and Cell Titer-Glo® (Promega G7571) reagents are brought to room temperature to equilibrate for 30 minutes. 100 μL of Cell Titer-Glo® reagent are added to each well. The plate is shaken for two minutes and then left to equilibrate for ten minutes. The media/Cell Titer-Glo® reagent is transferred to a polystyrene 96-well microculture plate before reading luminescence on a Tecan GENios microplate reader.
Percent inhibition of cell growth is calculated relative to untreated control wells. The IC50 value for the test agents is determined using Prism 6.05 by curve-fitting of the data using the following four parameter-logistic equation: […]

[3] = system: BT-474 human mammary gland ductal carcinoma cells; assay: Inhibitory response against BT-474 cells (Cell Titer-Glo); conditions: 72 hours of culture, inhibition of cell growth
Procedure: as §1, with “BT-474 human mammary gland ductal carcinoma” for “MES-SA (human uterine sarcoma)”, “[…]” for “μM”
(§3) Percent inhibition of cell growth was calculated relative to untreated control wells. The IC50 value for the test agents was determined using Prism 6.05 by curve-fitting of the data using the following four parameter-logistic equation:
as §2

HCC1954 cells = assay: Inhibitory response against HCC1954 cells (method analogous to BT-474); conditions: Homo sapiens, inhibition of cell growth
Procedure: as §1, with “BT-474 human mammary gland ductal carcinoma” for “MES-SA (human uterine sarcoma)”, “[…]” for “μM”
as §3, §2
Inhibitory response of test compounds against HCC1954 cells was determined using a method analogous to that used for BT-474 cells.

Row | Structure (SMILES) | pIC50 [1] | pIC50 [2] | pIC50 [3] | pIC50 (HCC1954 cells)
1 | CC[C@H](C)[C@@H]([C@@H](CC(=O)N1CCC[C@H]1[C@H](OC)[C@@H](C)C(=O)N[C@@H](Cc1ccccc1)c1nccs1)OC)N(C)C(=O)[C@@H](NC(=O)[C@H](C(C)C)N(C)C)C(C)(C)O [Compound 101] | 10.46 | 8.20 | 11.66 | 11.40
2 | CC[C@H](C)[C@@H]([C@@H](CC(=O)N1CCC[C@H]1[C@H](OC)[C@@H](C)C(=O)N[C@@H](Cc1ccccc1)c1nccs1)OC)N(C)C(=O)[C@@H](NC(=O)C(C)(C)NC)C(C)(C)O [Compound 107] (H-[NMeAib][Val(3-OH)][Dil][Dolaproine]-Doe) | – | – | 10.19 | 10.52
3 | CC[C@H](C)[C@@H]([C@@H](CC(=O)N1CCC[C@H]1[C@H](OC)[C@@H](C)C(=O)N[C@H](C)[C@@H](O)c1ccccc1)OC)N(C)C(=O)[C@@H](NC(=O)[C@H](C(C)C)N(C)C)C(C)(C)O [Compound 108] | – | – | 9.85 | 9.34
4 | CC[C@H](C)[C@@H]([C@@H](CC(=O)N1CCC[C@H]1[C@H](OC)[C@@H](C)C(=O)N[C@H](C)[C@@H](O)c1ccccc1)OC)N(C)C(=O)[C@@H](NC(=O)[C@@H](NC)C(C)C)C(C)(C)O [Compound 109] (H-[NMeV][Val(3-OH)][Dil][Dolaproine]-X1) | 7.83 | – | 7.58 | 7.96
5 | CC[C@H](C)[C@@H]([C@@H](CC(=O)N1CCC[C@H]1[C@H](OC)[C@@H](C)C(=O)N[C@H](C)[C@@H](O)c1ccccc1)OC)N(C)C(=O)[C@@H](NC(=O)C(C)(C)NC)C(C)(C)O [Compound 110] (H-[NMeAib][Val(3-OH)][Dil][Dolaproine]-X1) | 8.38 | – | 8.04 | 8.53
6 | CC[C@H](C)[C@@H]([C@@H](CC(=O)N1CCC[C@H]1[C@H](OC)[C@@H](C)C(=O)N[C@@H](Cc1ccccc1)c1nccs1)OC)N(C)C(=O)[C@H](CSC)NC(=O)C(C)(C)NC [Compound 111] (H-[NMeAib]C(Me)[Dil][Dolaproine]-Doe) | – | – | 9.06 | 10.18
7 | CC[C@H](C)[C@@H]([C@@H](CC(=O)N1CCC[C@H]1[C@H](OC)[C@@H](C)C(=O)N[C@@H](Cc1ccccc1)c1nccs1)OC)N(C)C(=O)[C@@H](NC(=O)C(C)(C)N)C(C)(C)O [Compound 113] (H-[Aib][Val(3-OH)][Dil][Dolaproine]-Doe) | – | – | 8.91 | 8.91
8 | CC[C@H](C)[C@@H]([C@@H](CC(=O)N1CCC[C@H]1[C@H](OC)[C@@H](C)C(=O)N[C@@H](Cc1ccccc1)c1nccs1)OC)N(C)C(=O)[C@H](NC(=O)C(C)(C)NC)C(C)(C)O [Compound 114] (H-[NMeAib][dVal(3-OH)][Dil][Dolaproine]-Doe) | – | – | 10.21 | 10.77
